Consider 28 molecules from patent US6403805B1 (Janssen Pharmaceutica N.V., priority 1995, dated 2002).

As usually defined, the IC50 is the concentration that inhibits the measured activity by half.

The subject of test [1] is dextran-induced oedema formation in mouse ear. Briefly: Dextran-induced oedema formation in mouse ear. The class given is in vivo, Male Swiss mice. The conditions noted are these: vs background blueing value; for inhibition in vivo at 5 mg/kg / inhibition in vivo at 2.5 mg/kg: Mus musculus, 1 h, read-out: % inhibition of the extravasation of the dye. Here is the method:
Dextran-induced oedema formation in mouse ear Systemic injection of dextran T500 in normal, non-sensitized mice elicits increased vascular permeability, leading to extravasation and oedema of the extremities. When dextran is injected together with a blue dye, blueing of the ears is the most prominent feature of oedematous response. Male Swiss mice weighting 24-26 g were orally pretreated with the test compound dissolved in PEG-200 at different concentrations or solvent. One hour later, the mice were given an intravenous injection with an isotonic saline solution containing 12 mg/ml dextran T500 and 2.6 mg/ml pontamine sky-blue dye, in a volume of 0.1 ml per 10 g body weight. One hour and forty-five minutes later, the animals are sacrificed by ether and their ears removed. Extraction and quantification of the extravasated dye is done as described by Van Wauwe and Goossens (Drug Dev. Res. 1986, 8, 213-218). The extravasation of the dye is characterized by the blueing value which is defined as the concentration of the extracted dye in both ears. The background blueing value was determined once as the mean blueing value obtained by injecting a group of mice with a saline solution containing only dextran T500 and the blue dye. Table 6 lists the percentage inhibition of the extravasation of the dye when compared with the background extravasation of the dye when the test compound was administered at a dose of 5 mg/kg. The test compounds indicated by an asterisk (*) were tested at a dose of 2.5 mg/kg

Test [2] deals with T1, recombinant human MNL phosphodiesterase type IV B (Homo sapiens, UniProt Q07343).
T1 construct: made in house; host or cells: insect cells infected with recombinant baculovirus
Kind of test: Inhibition of recombinant human mononuclear lymphocyte (MNL) phosphodiesterase type IV B produced in insect cells with a baculovirus vector. The settings on record: recombinant human MNL PDE IV B; 0.8 μM 3H-cAMP, pH 8, 37° C.; calculated graphically. The format is biochemical. As to the method:
Inhibition of recombinant human mononuclear lymphoctye (MNL) phosphodiesterase type IV B produced in insect cells with a baculovirus vector
The alleviating and/or curing effect of the instant compounds on allergic and atopic diseases was assessed by an in vitro assay system to detect an inhibiting effect on the recombinant human MNL phosphodiesterase type IV B.
Seventy-two hours after infection with recombinant baculovirus, the insect cells were harvested and pelleted at 500 g for 5 minutes. The cells were lysed in 10 ml lysis-buffer consisting of 20 mM Tris, 10 mM EGTA, 2 mM Na2EDTA, 1% Triton-X-100, 1 mM Na3VO4, 10 mM NaF, 2 μg/ml of leupeptine, pepstatine and aprotinine, 0.3 μg/ml benzamidine and 100 μg/ml TPCK pH 7.5. After 5 minutes on ice, solubilized cells were centrifuged at 4000 rpm for 15 minutes at 4° C. The resulting supernatant was filtered through a 0.45 μm filter (Millipore) and brought to TBS buffer (50 mM Tris, 150 mM NaCl pH 7.4).
After washing the column with equilibration buffer, PDE IV was eluted in 1.5 ml fractions containing 37.5 μl 1M Tris pH 8. The fractions were dialyzed overnight against 20 mM Tris, 2 mM Na2EDTA and 400 mM NaCl pH 7.5 and tested for PDE IV activity. Identification was done on SDS PAGE and Western Blot (anti-FLAG-M2). Active fractions were pooled, brought to 10% glycerol and stored at −70° C.
The incubation mixture (pH 8) (200 μl) contained 20 mM Tris, 10 mM magnesium sulphate, 0.8 μM ^3H-cAMP (310 mCi/mmole) and the phosphodiesterase type IV, the amount depending on the enzymatic activity.
When the effect of different compounds on phosphodiesterase activity was tested, the medium without cAMP was incubated with the compound(s) or its carrier (DMSO-1% final concentration) for 5 min. The enzymatic reaction was started by addition of ^3H-cAMP and stopped 10 min later after transferring the microtiter-plate in a waterbath at 100° C. for 5 min. After cooling to room temperature, alkaline phosphatase (0.25 μg/ml) was added and the mixture was incubated at 37° C. for 20 min. 100 μl of the mixture was subsequently applied to a GF-B filter-microtiter-plate (Millipore) filled with 300 μl DEAE-Sephadex-A25 suspension. The plate was washed 3 times with 75 μl 20 mM Tris pH 7.5 and the filtrates were collected for counting in the Packard Top Count scintillation counter.
The inhibiting effect of the present compounds on recombinant human MNL phosphodiesterase PDE IV B was measured at different concentrations of the instant compounds. The IC50 values (expressed in M) were calculated graphically from the thus obtained inhibition values.

Where [3] appears, read: oral dose of 5 mg/kg in PEG-200, one hour before i.v. dextran T500/pontamine sky-blue.
Setting [4] is: asterisk (*): oral dose of 2.5 mg/kg in PEG-200, one hour before i.v. dextran T500/pontamine sky-blue.
The mark [5] stands for this setting: oral dose of 5 mg/kg in PEG-200, one hour before i.v. dextran T500/pontamine sky-blue, 5 mg/kg.

T1 sequence (Q07343 whole entry): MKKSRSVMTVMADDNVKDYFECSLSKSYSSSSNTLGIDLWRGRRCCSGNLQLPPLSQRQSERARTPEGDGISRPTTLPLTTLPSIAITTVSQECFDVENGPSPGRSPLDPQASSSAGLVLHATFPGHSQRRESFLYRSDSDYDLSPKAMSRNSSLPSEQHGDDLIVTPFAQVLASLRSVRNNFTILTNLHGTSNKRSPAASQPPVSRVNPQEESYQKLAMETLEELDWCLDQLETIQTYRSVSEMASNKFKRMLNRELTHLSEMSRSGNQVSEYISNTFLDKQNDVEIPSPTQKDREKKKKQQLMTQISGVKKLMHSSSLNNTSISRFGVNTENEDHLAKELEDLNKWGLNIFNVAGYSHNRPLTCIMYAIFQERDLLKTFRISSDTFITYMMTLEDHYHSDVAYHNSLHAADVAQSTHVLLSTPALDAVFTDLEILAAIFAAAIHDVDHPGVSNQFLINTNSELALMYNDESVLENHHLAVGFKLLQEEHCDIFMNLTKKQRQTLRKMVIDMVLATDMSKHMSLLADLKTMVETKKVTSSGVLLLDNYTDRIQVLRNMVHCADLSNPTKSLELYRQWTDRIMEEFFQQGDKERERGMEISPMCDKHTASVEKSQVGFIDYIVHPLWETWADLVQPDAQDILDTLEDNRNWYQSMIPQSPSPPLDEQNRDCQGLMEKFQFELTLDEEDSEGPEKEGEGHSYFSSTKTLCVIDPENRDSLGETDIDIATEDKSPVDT

For `CCOc1ccc(CCn2cc[nH]c2=O)cc1OCC` [Compound 82], in test [1] (setting [3]), the inhibition in vivo at 5 mg/kg worked out at 28.2%. Also, the IC50 in test [2] was 0.46 µM.

Regarding `COc1ccc(C(C)Cn2cc[nH]c2=O)cc1OCC1CCCC1` (stereo not shown) [Compound 32], in test [1] (setting [3]), the inhibition in vivo at 5 mg/kg was 76.2%. The IC50 in test [2] is 0.14 µM.

On to “1,3-dihydro-1-[2-(3,4-dimethoxyphenyl)ethyl]-2-methyl-3H-imidazol-2-one [Compound 86]”, for which the “% inhibition of the extravasation of the dye” value (“% inhibition” for short) in test [1] (setting [3]) turned out to be 39.0%. Besides, the IC50 in test [2] is 1.8 µM.

Take `COc1ccc(C(N)CN2CCN(Cc3ccccc3)C2=O)cc1OC` (racemic) [Compound 11, (±)-1-[2-amino-2-(3,4-dimethoxyphenyl)ethyl]-3-(phenylmethyl)-2-imidazolidinone]: in test [1] (setting [3]), the inhibition in vivo at 5 mg/kg came to 26.8%.

Turning to `COc1ccc(Cn2cc[nH]c2=O)cc1OC` [Compound 84, 1,3-dihydro-1-[(3,4-dimethoxyphenyl)methyl]-2H-imidazol-2-one], in test [1] (setting [3]), the inhibition in vivo at 5 mg/kg came to 46.5%.

Turning to `COc1ccc(C(C)Cn2cc[nH]c2=O)cc1OC1CCCC1` (racemic) [Compound 1, (±)-1-[2-[3-(cyclopentyloxy)-4-methoxyphenyl]propyl]-1,3-dihydro-2H-imidazol-2-one], the inhibition in vivo at 5 mg/kg in test [1] (setting [3]) is 83.1%. Besides, the IC50 in test [2] was 0.0048 µM.

On to `COc1ccc(C(CN2CCNC2=O)NC(C)=O)cc1OC` (racemic) [Compound 16, (±)-N-[1-(3,4-dimethoxyphenyl)[2-(2-oxo-1-imidazolidinyl)-ethyl]acetamide], for which the “% inhibition” value in test [1] (setting [3]) came out at 10.8%.

Take `COc1ccc(C(C)Cn2cc[nH]c2=O)cc1OC1CCOC1` (stereo not shown) [Compound 29]: the inhibition in vivo at 2.5 mg/kg in test [1] (setting [4]) stood at 90.7%. Besides, in test [2], the IC50 was 0.24 µM.

In the case of `COc1ccc(C(C)Cn2cc[nH]c2=O)cc1OCC1CCCO1` (stereo not shown) [Compound 33], the inhibition in vivo at 5 mg/kg in test [1] (setting [3]) turned out to be 65.8%. Moreover, the IC50 in test [2] is 2.3 µM.

Turning to `CC(Cn1ccnc1O)c1ccc(OC(F)F)c(OC2CCCC2)c1` (stereo not shown) [Compound 37], the inhibition in vivo at 5 mg/kg in test [1] (setting [3]) came out at 75.7%. The IC50 in test [2] is 0.0007 µM.

For the molecule `COc1ccc(C(C)Cn2cc[nH]c2=O)cc1OCC1CC1` (stereo not shown) [Compound 23, (B)-1-[2-[3-(cyclopropylmethoxy)-4-methoxyphenyl]propyl]-1,3-dihydro-2H-imidazol-2-one], the “% inhibition” value in test [1] (setting [3]) is reported as 72.1%.

On to `CCOC(=O)Cn1ccn(C(C)c2ccc(OC)c(OC3CCCC3)c2)c1=O` (racemic) [Compound 9, (±)-ethyl 3-[1-[3-(cyclopentyloxy)-4-methoxy-phenyl]ethyl]-2,3-dihydro-2-oxo-1H-imidazole-1-acetate], for which the inhibition in vivo at 5 mg/kg in test [1] (setting [3]) came to 10.2%.

Turning to `COc1ccc(C(O)CN2CCNC2=O)cc1OC` (racemic) [Compound 13, ±)-1-[2-(3,4-dimethoxyphenyl)-2-hydroxy-ethyl]-2-imidazolidinone], the “% inhibition” value in test [1] (setting [3]) came to 36.3%.

With `COc1ccc(CCN2CCNC2=O)cc1OC` [Compound 78, 1-[2-(3,4-dimethoxyphenyl)ethyl]-1,3,4,5-tetrahydro-2H-imidazol-2-one], the inhibition in vivo at 5 mg/kg in test [1] (setting [3]) came to 31.3%. Moreover, the IC50 in test [2] was 9 µM.

On to `COc1ccc(CCCn2cc[nH]c2=O)cc1OC` [Compound 85, 1,3-dihydro-1-[3-(3,4-dimethoxyphenyl)propyl]-2H-imidazol-2-one], for which the inhibition in vivo at 5 mg/kg in test [1] (setting [3]) worked out at 31.6%.

Regarding `COc1ccc(C(C)Cn2cc[nH]c2=O)cc1OCC1CC1` (racemic) [Compound 10, (±)-1-[2-[3-(cyclopropylmethoxy)-4-methoxyphenyl]propyl]-1,3-dihydro-2H-imidazol-2-one], in test [1] (setting [3]), the inhibition in vivo at 5 mg/kg was found to be 91.9%. In addition, in test [2], the IC50 is under 0.01 µM.

As to `COc1ccc(C(C)CN2CCNC2=O)cc1OC` (stereo not shown) [Compound 80, 1-[2-(3,4-dimethoxyphenyl)propyl]-1,3,4,5-tetrahydro-2H-imidazol-2-one], in test [1] (setting [3]), the inhibition in vivo at 5 mg/kg came out at 53.4%. The IC50 in test [2] was 3.2 µM.

For `COc1ccc(C(C)Cn2cc[nH]c2=O)cc1OC1CCCC1` (stereo not shown) [Compound 7, (B)-1-[2-[3-(cyclopentyloxy)-4-methoxyphenyl]propyl]-1,3-dihydro-2H-imidazol-2-one], in test [1] (setting [5]), the “% inhibition” value came to 67.0%. Further, in test [2], the IC50 is 0.043 µM.

`COc1ccc(C(C)Cn2cc[nH]c2=O)cc1OCC1CC1` (stereo not shown) [Compound 22, (A)-1-[2-[3-(cyclopropylmethoxy)-4-methoxyphenyl]propyl]-1,3-dihydro-2H-imidazol-2-one]: the inhibition in vivo at 5 mg/kg in test [1] (setting [3]) was determined as 83.5%. Further, in test [2], the IC50 was 0.045 µM.

As to `COc1ccc(C(O)(Cn2cc[nH]c2=O)c2ccccc2)cc1OC1CCCC1` (racemic) [Compound 8, (±)-1-[2-[3-(cyclopentyloxy)-4-methoxyphenyl]-2-hydroxy-2-phenylethyl]-1,3-dihydro-2H-imidazol-2-one], in test [1] (setting [3]), the inhibition in vivo at 5 mg/kg worked out at 12.4%. For the same molecule, the IC50 in test [2] is 1.9 µM.

Take `COc1ccc(C(C)Cn2cc[nH]c2=O)cc1OC` (stereo not shown) [Compound 76, 1,3-dihydro-1-[2-(3,4-dimethoxyphenyl)propyl]-2H-imidazol-2-one]: in test [1] (setting [3]), the inhibition in vivo at 5 mg/kg came out at 69%. The half-inhibitory concentration (IC50) in test [2] is 0.15 µM.

In the case of `COc1ccc(C(C)Cn2cc[nH]c2=O)cc1OC1CCCC1` (stereo not shown) [Compound 6, (A)-1-[2-[3-(cyclopentyloxy)-4-methoxy-phenyl]propyl]-1,3-dihydro-2H-imidazol-2-one], in test [1] (setting [5]), the “% inhibition” value is on record as 85.1%. In test [2], the half-inhibitory concentration (IC50) is 0.0041 µM.

For the molecule `COc1ccc(C(O)Cn2cc[nH]c2=O)cc1O` (racemic) [Compound 19, (±)-1,3-dihydro-1-[2-hydroxy-2-(3-hydroxy-4-methoxyphenyl)ethyl]-2H-imidazol-2-one], the inhibition in vivo at 2.5 mg/kg in test [1] (setting [4]) is 49.4%.

For the molecule `CC(Cn1cc[nH]c1=O)c1ccc(OC(F)F)c(OC(F)F)c1` (stereo not shown) [Compound 38], in test [1] (setting [3]), the inhibition in vivo at 5 mg/kg is 76.6%. Further, in test [2], the IC50 is 0.02 µM.

Turning to `COc1ccc(C(C)Cn2c(C)c[nH]c2=O)cc1OC` (stereo not shown) [Compound 77, 1,3-dihydro-1-[2-(3,4-dimethoxyphenyl)propyl]-5-methyl-2H-imidazol-2-one], in test [1] (setting [3]), the inhibition in vivo at 5 mg/kg came to 35.8%. The IC50 in test [2] is 7.3 µM.

For `COc1ccc(CCn2cc[nH]c2=O)cc1OC1CCOC1` (stereo not shown) [Compound 35], the inhibition in vivo at 5 mg/kg in test [1] (setting [3]) was determined as 90.1%. Also, in test [2], the 50% inhibitory concentration (IC50) was 0.18 µM.

Turning to `O=c1[nH]ccn1CC(F)c1ccc(OC(F)F)c(OCC2CC2)c1` (racemic) [Compound 20, (±)-1-[2-[3-(cyclopropylmethoxy)-4-(difluoromethoxy)phenyl-2-fluoroethyl]-1,3-dihydro-2H-imidazol-2-one], in test [1] (setting [4]), the “% inhibition” value was determined as 94.4%.

As to `COc1cc(Br)c(CCn2cc[nH]c2=O)cc1OC` [Compound 81, 1,3-dihydro-2-[2-(2-bromo-4,5-dimethoxyphenyl)ethyl]-2H-imidazol-2-one], in test [1] (setting [3]), the “% inhibition” value was 34.1%.
